In PubChem BioAssay (NCI):
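Test compounds were applied to cells in 96-well plates for 48 hours at 5 doses. TGI is the concentration that stops growth completely.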 Where a SMILES comes first, the peptide text is derived from it.

What was measured:
Experiment in all cases: inhibition of tumour cell growth, NCI panel, 48 h
A549 NSCLC = tested on: A549 NSCLC
BT-549 breast = tested on: BT-549 breast
CAKI-1 renal = tested on: CAKI-1 renal
CCRF-CEM leukemia = tested on: CCRF-CEM leukemia
HCT-15 colon = tested on: HCT-15 colon
HOP-62 NSCLC = tested on: HOP-62 NSCLC
HS 578T breast = tested on: HS 578T breast
IGROV1 ovarian = tested on: IGROV1 ovarian
K-562 leukemia = tested on: K-562 leukemia
LOX IMVI melanoma = tested on: LOX IMVI melanoma
MCF7 breast = tested on: MCF7 breast
MDA-MB-231 breast = tested on: MDA-MB-231 breast
OVCAR-3 ovarian = tested on: OVCAR-3 ovarian
OVCAR-5 ovarian = tested on: OVCAR-5 ovarian
RPMI-8226 leukemia = tested on: RPMI-8226 leukemia
SF-295 CNS = tested on: SF-295 CNS
SK-MEL-28 melanoma = tested on: SK-MEL-28 melanoma
SW-620 colon = tested on: SW-620 colon
TK-10 renal = tested on: TK-10 renal
T-47D breast = tested on: T-47D breast

Structure (SMILES) | TGI (A549 NSCLC) [µM] | TGI (BT-549 breast) [µM] | TGI (CAKI-1 renal) [µM] | TGI (CCRF-CEM leukemia) [µM] | TGI (HCT-15 colon) [µM] | TGI (HOP-62 NSCLC) [µM] | TGI (HS 578T breast) [µM] | TGI (IGROV1 ovarian) [µM] | TGI (K-562 leukemia) [µM] | TGI (LOX IMVI melanoma) [µM] | TGI (MCF7 breast) [µM] | TGI (MDA-MB-231 breast) [µM] | TGI (OVCAR-3 ovarian) [µM] | TGI (OVCAR-5 ovarian) [µM] | TGI (RPMI-8226 leukemia) [µM] | TGI (SF-295 CNS) [µM] | TGI (SK-MEL-28 melanoma) [µM] | TGI (SW-620 colon) [µM] | TGI (TK-10 renal) [µM] | TGI (T-47D breast) [µM]
CN(C)CCNC1=CC(=O)c2nc3ccccc3c3ccnc1c23 | 26.3 | 21.4 | 18.9 | 21.3 | 20.3 | 25.6 | 24.5 | 14.8 | 17.7 | 5.94 | 16.3 | 16 | 16.4 | 34.1 | 55.5 | 19.8 | 23.5 | 18 | 97.5 | 
CN(C)C1(N(C)C)Oc2c(c(=O)n(C)c(=O)n2C)C(c2ccccc2Br)C1(F)F (stereo not drawn) | > 100 | > 100 | > 100 | > 100 | > 100 | > 100 |  |  | > 100 | > 100 | > 100 | > 100 | > 100 | > 100 | > 100 | > 100 | > 100 | > 100 | > 100 | > 100
CSc1nc2c(c(=O)[nH]1)N=C(c1ccc(Cl)cc1)CC(c1ccccc1)N2 (stereo not drawn) | 26.4 | 45.4 | 34.2 | 37.4 |  | 31.7 |  | 29.5 | 44.9 | 44.2 | 33.2 | 30.8 | 28.5 | 34.2 | 40.1 | 32.6 | 32.4 | 39.1 |  | 
NC(=O)NC1=NC(Cc2ccccc2)C(=O)N1Cc1ccccc1 (stereo not drawn) | > 100 |  |  | > 100 | > 100 | > 100 |  | > 100 | > 100 | > 100 |  |  | > 100 | > 100 | > 100 | > 100 | > 100 | > 100 | > 100 | 
CNC(=O)CNC(=O)C(NC(=O)CNC(=O)C1CCCN1C(=O)C(C)NC(=O)C(NC(C)=O)C(C)C)C(C)C (stereo not drawn) (Ac-VAPGVG-NHMe; configuration not given here) |  |  | > 100 | > 100 | > 100 | > 100 |  | > 100 | > 100 | > 100 | > 100 | > 100 | > 100 | > 100 | > 100 | > 100 | > 100 | > 100 | > 100 | > 100
COC(=O)c1cc(C)ccc1C1CN=NC12Cc1cccc(C)c1C2=O (stereo not drawn) | > 100 |  | > 100 | 99 | > 100 | > 100 | > 100 | > 100 | > 100 | 53 | > 100 | 75.5 | > 100 | 96.4 | 54.9 | > 100 | > 100 | > 100 | > 100 | 35.6
Cc1c(C(=O)/C=C/c2c(Cl)cccc2Cl)c(=O)n(-c2ccccc2)n1C | 74.9 |  | > 100 | 56.6 | > 100 |  |  | > 100 |  | 41.8 |  |  | 73.5 | > 100 |  | 75.9 | > 100 | 25.9 | > 100 | 
COC(=O)CCc1ccc2c(c1)CC1(Cc3ccccc3C1)C2 | > 100 |  |  | > 100 | > 100 | > 100 | > 100 | > 100 | > 100 | > 100 | > 100 | > 100 | > 100 | > 100 | > 100 | > 100 |  |  | > 100 | > 100
CC(CO)(CBr)COC(=O)c1cc(Br)c(N)c(Br)c1 (stereo not drawn) | > 100 | > 100 | > 100 | > 100 | > 100 | > 100 |  | > 100 | > 100 | > 100 |  | > 100 | > 100 | > 100 | > 100 | > 100 | > 100 | > 100 | > 100 | > 100
CC(C)n1c(=O)[nH]n(-c2ccccc2)c1=O | > 100 |  | > 100 | > 100 | > 100 | > 100 | > 100 | > 100 | > 100 | > 100 | > 100 | > 100 | > 100 | > 100 | > 100 | > 100 | > 100 | > 100 | > 100 | 
C=C(Br)C(C)(Br)CCC(Br)C(C)(C)Br (stereo not drawn) | > 100 |  | > 100 | 63.5 | > 100 | 34.9 |  | 39 | > 100 | 31 |  |  |  | > 100 | 58.2 | 62 | 46.3 | 70.9 | > 100 | 
C[C@@H](CO)C1=CC(C#C[Si](C)(C)C)N(C(=O)Oc2ccccc2)c2ccccc21 (stereo partly drawn) | 61.4 |  | 56.8 | 72.6 | 21.7 | 30 | 47 | 36.4 | 95.5 | 32.4 |  | 37.8 | 26.9 | 57.1 | 90.4 | 28.1 | 36.3 | > 100 | 79.5 | 51.1
NC(=NCCN1CCCCCCC1)NO | > 100 |  | > 100 | > 100 | > 100 | > 100 | > 100 | 92.6 | > 100 | > 100 | > 100 | > 100 | > 100 | > 100 | > 100 | > 100 | > 100 | > 100 | > 100 | > 100
